From a compilation of properties of binary mixtures (doi:10.1016/j.molliq.2012.09.002)

Assay: xn = mol fraction of the nth substance listed
Settings: 101 kPa

CCCCCC[n+]1ccn(C)c1.F[B-](F)(F)F + CN(CCO)CCO
viscosity [mPa·s]
Settings | x2 = 0 | x2 = 0.097 | x2 = 0.192 | x2 = 0.2909 | x2 = 0.3916 | x2 = 0.4949 | x2 = 0.5936 | x2 = 0.6935 | x2 = 0.7928 | x2 = 0.8824
303.15 K | 85 | 81.7 | 78.6 | 75.6 | – | – | 67.1 | 64.6 | – | 60.1
308.15 K | 69 | 65.9 | 63.1 | 60.3 | 57.6 | 55.1 | 52.7 | 50.5 | 48.3 | 46.5
313.15 K | 55 | 52.5 | 50.2 | 48 | 45.8 | 43.7 | – | 40 | 38.3 | –
318.15 K | 43 | 41.1 | 39.3 | 37.6 | 35.9 | – | 32.8 | 31.4 | 30.1 | 28.9
323.15 K | 36 | 34.2 | 32.6 | 31 | 29.5 | 28 | 26.7 | 25.5 | 24.3 | 23.3

CN(CCO)CCO + CCCCCC[n+]1ccn(C)c1.F[B-](F)(F)F
x1 = 1
Settings | viscosity [mPa·s]
318.15 K | 27.5
323.15 K | 22
